In PMC12649575, “Assessment of Polymyxin B with Sodium Deoxycholate Sulfate Micelles in a Rat Model to Combat Polymyxin Nephrotoxicity” (Antibiotics, 2025):

How the values were obtained:
rat kidney function = assay: Kidney function: serum BUN and creatinine after 7 days of treatment; type: in vivo; conditions: after 7 days of 6 mg/kg/day s.c., autoanalyzer, mean ± SD; for Serum creatinine (Cr): n = 5, normal saline 2.08 ± 1.08; for Serum blood urea nitrogen (BUN): n = 5, normal saline 13.8 ± 1.3
Method: After seven days of treatment, the serum levels of blood urea nitrogen (BUN) and Cr were assessed in the rats to investigate their kidney function. […] The PMB group had slightly elevated Cr levels (2.28 ± 0.31 mg/dL) (Figure 2B).
(§1) The nephrotoxicity experiment of the PMB formulation was performed on 36 male rats that were randomly divided into four groups (n = 9). Randomization was performed using computer-generated random sequences in Microsoft Excel with a fixed seed value to ensure reproducibility. Block randomization was used to balance the number of animals per group. […] The PMB dose of 6 mg/kg/day (expressed as PMB equivalent) was selected based on previous pharmacokinetic and toxicity studies in rats, where this dose consistently produced measurable nephrotoxicity without lethality. […] The average weight gain of each group was recorded for the experiment. We randomized the treatment order and controlled the timing of measurements, and all researchers involved in the study were blinded to the intervention. The animals were euthanized 24 h after the last treatment with an intraperitoneal lethal dose of sodium pentobarbital (200 mg/kg). Blood samples were collected by cardiac puncture, and the serum was separated by centrifugation (3000× g for 15 min) and stored at −80 °C until assayed. Samples of the kidney, liver, spleen, lung, and heart tissues were carefully collected, weighed, and sectioned for histopathological analysis. Histological observation was performed to assess potential tissue damage and evaluate the extent of toxicity following the treatment.
(§2) The serum levels of SOD and CAT were measured after the 7-day treatment period to investigate the oxidative properties of the treatments. The measurements were carried out using commercial kits according to the manufacturer’s instructions.

male Sprague-Dawley rats [1] = assay: Serum oxidative stress biomarkers SOD and CAT after 7 days of treatment; type: in vivo; conditions: rat serum, after 7 days of 6 mg/kg/day s.c., commercial kit, mean ± SD, n = 5; for Serum catalase (CAT) level: control 22.4 ± 3.79; for Serum superoxide dismutase (SOD) level: normal saline 37.36 ± 3.4
Method: The serum levels of superoxide dismutase (SOD) and Catalase (CAT) in rats were analyzed to evaluate and compare the oxidative stress induced by the treatments. […] No significant reductions were detected in the serum SOD levels of the SDCS (38 ± 3.17 U/mL) and formulation (34.73 ± 5.17 U/mL) groups. […] The serum CAT levels in the treated rats followed a trend similar to that observed for the SOD levels (Figure 2D).
as §1, §2

[2] = test system: rat kidney, liver, lung and spleen tissue; assay: Histopathological examination (H&E) of kidney, liver, lung and spleen; type: in vivo; conditions: 7 days of 6 mg/kg/day s.c., result in words
Method: An H&E assay was performed on the collected tissues of all animals to evaluate PMB-induced nephrotoxicity and organ damage. The kidney histopathological results from the H&E assay of the renal cortex and medulla in the treated animals are shown in Figure 3.
Liver histopathological alterations in the central vein area and portal triad area of the treated rats are shown in Figure 4A and Figure 4B, respectively.
Histopathological alterations in the spleen tissue of the treated animals were also examined (Figure 4D).
as §1
Excess fat from the kidney, liver, spleen, lung, and heart tissues was removed through dissection and trimming. All samples were preserved in 10% buffered formalin using a fixative volume at least 10 times the tissue volume for three days. Subsequently, the tissues were dehydrated through a graded series of ethanol (70%, 80%, 95%, and 100%) using a tissue processor (LEICA TP 1020, Leica Microsystems GmbH, Wetzlar, Germany), with each concentration step lasting for 60 min. Following this, the tissues were embedded in Paraplast blocks using a tissue embedder (LEICA EG 1160, Leica Microsystems GmbH, Wetzlar, Germany). Thin sections that measured 5 μm in thickness were obtained using an automatic microtome. The slides were stained with Harris’ hematoxylin and eosin (H&E) and examined under an Olympus DP73 microscope (Olympus, Tokyo, Japan) equipped with cellSens software version 6.1.4.2. Histopathological analysis was performed by an investigator who was blinded to the treatment groups.

[3] = PMB serum concentration after a single subcutaneous dose (LC-MS); type: in vivo; conditions: rat, single 6 mg/kg s.c., 4 h post-dose, PMB after protein precipitation, mean ± SD, n = 4
From the text: (§3) The serum concentrations reported represent the free (unbound) PMB fraction determined after protein precipitation and filtration, which is the pharmacologically active component.
(§4) For the biodistribution study, a sample size of four rats per group was chosen as a preliminary exploratory analysis to determine major organ distribution trends. This sample size was consistent with previous biodistribution studies involving polymyxins and sufficient to identify statistically meaningful differences in renal accumulation [7]. […] PMB concentrations were measured in LC-MS for free (unbound) fraction of serum and tissue homogenates after protein precipitation.
(§5) The PMB was quantified using an LC-MS/ion trap time-of-flight system (Shimadzu, Tokyo, Japan) equipped with a C18 column (2.1 mm id × 150 mm, 2.7 µm particle size; Thermo Fisher Scientific, Scoresby, Australia). […] A quantity of 400 µL of supernatant was added to 600 µL of the mobile phase. A known amount of standard PMB in blank serum was prepared using the same method to produce a calibration curve of PMB and quantification was performed using colistin sulfate (1 µg/mL) as the internal standard. The monitored mass transitions were m/z 602.4 → 101.1 for PMB and m/z 585.5 → 101.1 for colistin. […]

[4] = PMB biodistribution in organs 24 h after subcutaneous dose (LC-MS); type: in vivo; conditions: rat, 6 mg/kg s.c., kidney homogenate 24 h post-dose, mean ± SD, n = 4
From the text: as §3, §4, §5

male Sprague-Dawley rats [5] = assay: Body weight and body weight gain in the 7-day nephrotoxicity study; type: in vivo; conditions: rat
Method: After seven days of treatment with 6 mg/kg of the PMB and PMB formulation, the weight progression of the rats in each group was measured and recorded. All 36 rats successfully acclimated and reached the target body weight of 110 g within the 7-day period. No animals were excluded from the study. The results in Figure 1A show the weight changes measured on day 0, day 4, and day 7 of administration.
The animal study was approved by the Animal Ethics Committee of Prince of Songkla University (Project License No. MHESI 68014/675, Ref. AR042/2024). The animals were housed in a controlled environment with a temperature of 22 ± 2 °C, relative humidity of 50 ± 10%, and a 12/12-h light/dark cycle. They were provided with a standard laboratory rodent diet and water ad libitum. The study was conducted on male outbred Sprague-Dawley rats (5–7 weeks old, 130–170 g) that were obtained from the National Laboratory Animal Center, Mahidol University, Nakorn Pathom, Thailand. The rats were fed the standard feed protocol by the Southern Laboratory Animal Facility, Faculty of Sciences, Prince of Songkla University. Rats were allowed to acclimate for 7 days prior to the experiment.
as §1, with “Blood samples were collected by cardiac puncture, and the serum was separated by centrifugation (3000× g for 15 min) and stored at −80 °C until assayed. Samples of the kidney, liver, spleen, lung, and heart tissues were carefully collected, weighed, and sectioned for histopathological analysis. Histological observation was performed to assess potential tissue damage and evaluate the extent of toxicity following the treatment.” left out

[6] = cited from earlier work
From the text: Nephrotoxicity remains a significant challenge for PMB. The prevalence of nephrotoxicity ranges from 10% to 60% despite the effectiveness of PMB in treating multidrug-resistant Gram-negative bacterial infections. The amphipathic properties of polymyxins are also responsible for their nephrotoxicity where the cationic diaminobutyric acid (Dab) residues of PMB interact with anionic phospholipids (e.g., phosphatidylinositol, cardiolipin) on the membranes of renal tubular cells. This electrostatic interaction, combined with the insertion of the lipophilic tail into the lipid bilayer, dis ... || PMB undergoes extensive reabsorption in the renal tubule, and a very high concentration of PMB is found in human renal tubular cells compared to the extracellular concentration. The increased accumulation of PMB leads to cell swelling and lysis by disrupting the permeability of the renal tubular epithelial cell membrane. In our results, the administration of the PMB formulation increased the serum concentration profile of PMB.

Substance | Serum creatinine (Cr) (rat kidney function) | Serum blood urea nitrogen (BUN) (rat kidney function) | Serum catalase (CAT) level (male Sprague-Dawley rats [1]) | Serum superoxide dismutase (SOD) level (male Sprague-Dawley rats [1]) | Kidney histopathology (renal cortex and medulla) [2] | Liver histopathology (central vein and portal triad area) [2] | Lung histopathology [2] | Spleen histopathology [2] | PMB serum concentration at 4 h [3] | PMB concentration in the kidneys after 24 h [4] | Body weight gain compared with control (male Sprague-Dawley rats [5]; 6 mg/kg/day s.c. for 7 days, n = 9, result in words) | Body weight on day 4 (male Sprague-Dawley rats [5]; 6 mg/kg/day s.c., day 4 of 7, mean ± SD, n = 9, normal saline group 180.0 ± 11.83 g) | Body weight on day 7 (male Sprague-Dawley rats [5]; 6 mg/kg/day s.c., day 7, mean ± SD, n = 9, normal saline group 207.5 ± 11.62 g) | Urinary recovery ([6]; animal models) | PMB kidney/serum concentration ratio ([6]; another study)
Sodium Deoxycholate sulfate [SDCS] | 2.06 ± 0.32 mg/dL | 14.4 ± 2.07 mg/dL | 22.25 ± 6.38 nmol/min/mL | 38 ± 3.17 U/mL | normal | normal hepatic tissues | normal lung tissue | normal white and red pulp |  |  |  |  |  |  | 
Polymyxin B [PMB] | 2.28 ± 0.31 mg/dL | 16.56 ± 1.59 mg/dL | 9.5 ± 7.91 nmol/min/mL | 22.87 ± 8.1 U/mL | Deformation of the glomeruli and congestion of the renal blood vessels | significant monocyte infiltration accompanied by loss of hepatocyte architecture and the presence of necrotic foci around the blood vessels | endothelial damage that was evidenced by an increased number of small pulmonary venules containing fibrin thrombi | numerous multinucleated giant cells | 2.94 ± 0.23 µg/mL | 3.73 ± 0.89 µg/g | significant reduction in body weight gain | 163.89 ± 15.37 g | 191.67 ± 15.83 g | < 5% | 18 fold
